Measured values: ChEMBL document CHEMBL5291721, “A preclinical secondary pharmacology resource illuminates target-adverse drug reaction associations of marketed drugs” (Nat Commun, 2023)

Key:
[1] = molecular target: T1, Muscarinic acetylcholine receptor M1 (Homo sapiens, UniProt P11229); type: functional, cell-based
T1 sequence (P11229 whole entry): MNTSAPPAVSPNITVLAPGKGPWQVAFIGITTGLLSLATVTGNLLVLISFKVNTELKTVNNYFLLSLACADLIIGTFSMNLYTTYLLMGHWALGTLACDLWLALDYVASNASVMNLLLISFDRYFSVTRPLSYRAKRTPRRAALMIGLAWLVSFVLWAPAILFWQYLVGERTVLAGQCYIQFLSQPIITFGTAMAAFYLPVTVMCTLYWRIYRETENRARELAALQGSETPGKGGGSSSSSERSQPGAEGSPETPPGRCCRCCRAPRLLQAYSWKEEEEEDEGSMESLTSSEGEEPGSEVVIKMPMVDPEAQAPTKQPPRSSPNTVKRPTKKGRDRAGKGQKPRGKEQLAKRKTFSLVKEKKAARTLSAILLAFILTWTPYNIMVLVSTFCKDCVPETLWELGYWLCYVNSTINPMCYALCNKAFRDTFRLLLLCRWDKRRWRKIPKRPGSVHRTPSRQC

Adenosine receptor A3 = molecular target: T2, Adenosine receptor A3 (Homo sapiens, UniProt P0DMS8)
T2 sequence (P0DMS8 whole entry): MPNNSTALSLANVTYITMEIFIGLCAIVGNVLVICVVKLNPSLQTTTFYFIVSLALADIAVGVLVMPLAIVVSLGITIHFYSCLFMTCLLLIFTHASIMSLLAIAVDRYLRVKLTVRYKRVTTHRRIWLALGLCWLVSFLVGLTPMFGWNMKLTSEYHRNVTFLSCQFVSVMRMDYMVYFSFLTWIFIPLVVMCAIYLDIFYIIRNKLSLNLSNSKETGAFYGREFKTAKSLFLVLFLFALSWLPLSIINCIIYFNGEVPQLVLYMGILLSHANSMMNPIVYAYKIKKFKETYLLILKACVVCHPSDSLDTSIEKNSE

[2] = molecular target: Prostaglandin G/H synthase 1 (Homo sapiens, UniProt P23219); type: functional
[3] = molecular target: Gamma-aminobutyric acid receptor subunit alpha-1 (Rattus norvegicus, UniProt P62813)
[4] = molecular target: T3, Prostaglandin G/H synthase 1 (Rattus norvegicus, UniProt Q63921); type: functional
T3 sequence (Q63921 whole entry): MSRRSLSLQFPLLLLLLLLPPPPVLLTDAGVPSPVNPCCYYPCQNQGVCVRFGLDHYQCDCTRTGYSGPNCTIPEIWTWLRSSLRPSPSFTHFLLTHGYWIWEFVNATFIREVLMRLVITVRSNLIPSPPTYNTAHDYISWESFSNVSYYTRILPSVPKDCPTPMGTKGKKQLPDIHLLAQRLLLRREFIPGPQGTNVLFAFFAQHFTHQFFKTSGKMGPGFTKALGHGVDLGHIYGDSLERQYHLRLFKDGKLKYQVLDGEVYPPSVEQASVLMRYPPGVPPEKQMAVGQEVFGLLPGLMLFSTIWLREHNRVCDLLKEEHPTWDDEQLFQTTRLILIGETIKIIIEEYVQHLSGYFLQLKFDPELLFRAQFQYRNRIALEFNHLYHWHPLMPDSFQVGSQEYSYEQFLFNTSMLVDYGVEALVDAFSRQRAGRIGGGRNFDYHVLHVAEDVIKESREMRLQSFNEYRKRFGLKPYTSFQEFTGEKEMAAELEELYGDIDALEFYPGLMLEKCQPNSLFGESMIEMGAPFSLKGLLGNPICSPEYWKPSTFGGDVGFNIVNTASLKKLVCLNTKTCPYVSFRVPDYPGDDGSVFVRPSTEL

[5] = molecular target: T4, Alpha-1A adrenergic receptor (Homo sapiens, UniProt P35348); type: functional, cell-based
T4 sequence (P35348 whole entry): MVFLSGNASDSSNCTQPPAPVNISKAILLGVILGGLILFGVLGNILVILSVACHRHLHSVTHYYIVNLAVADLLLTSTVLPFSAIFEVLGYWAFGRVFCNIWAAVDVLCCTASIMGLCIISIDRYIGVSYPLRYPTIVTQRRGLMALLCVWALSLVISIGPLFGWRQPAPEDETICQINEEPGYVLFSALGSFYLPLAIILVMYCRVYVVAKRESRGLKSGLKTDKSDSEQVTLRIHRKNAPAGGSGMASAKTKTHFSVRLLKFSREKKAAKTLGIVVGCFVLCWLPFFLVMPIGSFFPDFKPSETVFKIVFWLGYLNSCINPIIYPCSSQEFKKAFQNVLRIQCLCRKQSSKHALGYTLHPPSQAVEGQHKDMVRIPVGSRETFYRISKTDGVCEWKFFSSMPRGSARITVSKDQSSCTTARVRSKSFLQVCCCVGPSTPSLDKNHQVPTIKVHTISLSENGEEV

[6] = molecular target: Beta-1 adrenergic receptor (Homo sapiens, UniProt P08588); type: functional
[7] = molecular target: T5, Alpha-2A adrenergic receptor (Homo sapiens, UniProt P08913); type: functional, cell-based
T5 sequence (P08913 whole entry): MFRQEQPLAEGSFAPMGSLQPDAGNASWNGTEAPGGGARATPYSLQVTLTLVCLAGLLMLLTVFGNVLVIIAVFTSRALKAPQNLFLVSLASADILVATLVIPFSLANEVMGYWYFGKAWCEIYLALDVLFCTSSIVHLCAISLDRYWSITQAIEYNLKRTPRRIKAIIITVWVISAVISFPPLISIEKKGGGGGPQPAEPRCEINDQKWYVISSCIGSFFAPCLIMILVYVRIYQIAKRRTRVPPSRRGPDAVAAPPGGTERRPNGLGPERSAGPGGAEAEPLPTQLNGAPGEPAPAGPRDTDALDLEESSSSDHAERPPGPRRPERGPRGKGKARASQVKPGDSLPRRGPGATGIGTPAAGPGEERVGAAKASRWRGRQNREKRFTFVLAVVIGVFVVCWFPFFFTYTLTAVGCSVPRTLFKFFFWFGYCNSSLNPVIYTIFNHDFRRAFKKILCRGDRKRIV

Adenosine receptor A2a = Adenosine receptor A2a (Homo sapiens, UniProt P29274)
Cannabinoid receptor 1 = Cannabinoid receptor 1 (Homo sapiens, UniProt P21554); type: functional, cell-based
[8] = molecular target: Beta-2 adrenergic receptor (Homo sapiens, UniProt P07550)
[9] = molecular target: T4, Alpha-1A adrenergic receptor
[10] = molecular target: 5-hydroxytryptamine receptor 2B (Homo sapiens, UniProt P41595); type: functional, cell-based
D(3) dopamine receptor = D(3) dopamine receptor (Homo sapiens, UniProt P35462)
[11] = molecular target: T5, Alpha-2A adrenergic receptor; type: functional, cell-based; remark: listed apart in the source
Also: assay procedure not described here.

Prostaglandin G/H synthase 1 (Homo sapiens, UniProt P23219), sequence (P23219 whole entry): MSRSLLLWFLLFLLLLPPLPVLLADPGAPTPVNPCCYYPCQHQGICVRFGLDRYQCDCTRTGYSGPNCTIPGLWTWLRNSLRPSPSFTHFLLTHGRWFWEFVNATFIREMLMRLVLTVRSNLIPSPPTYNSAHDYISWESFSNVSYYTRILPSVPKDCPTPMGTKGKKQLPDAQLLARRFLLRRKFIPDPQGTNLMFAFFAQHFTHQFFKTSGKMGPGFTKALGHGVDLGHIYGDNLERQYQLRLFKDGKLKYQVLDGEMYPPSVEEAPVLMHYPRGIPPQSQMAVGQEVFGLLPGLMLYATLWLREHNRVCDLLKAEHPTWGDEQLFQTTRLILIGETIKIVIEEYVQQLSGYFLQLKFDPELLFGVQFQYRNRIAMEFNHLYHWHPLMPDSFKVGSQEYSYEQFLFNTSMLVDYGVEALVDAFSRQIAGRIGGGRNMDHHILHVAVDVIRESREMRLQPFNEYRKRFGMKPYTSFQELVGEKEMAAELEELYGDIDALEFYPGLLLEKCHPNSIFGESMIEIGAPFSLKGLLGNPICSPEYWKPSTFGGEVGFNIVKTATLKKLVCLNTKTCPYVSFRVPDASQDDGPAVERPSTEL
Gamma-aminobutyric acid receptor subunit alpha-1, sequence (P62813 whole entry): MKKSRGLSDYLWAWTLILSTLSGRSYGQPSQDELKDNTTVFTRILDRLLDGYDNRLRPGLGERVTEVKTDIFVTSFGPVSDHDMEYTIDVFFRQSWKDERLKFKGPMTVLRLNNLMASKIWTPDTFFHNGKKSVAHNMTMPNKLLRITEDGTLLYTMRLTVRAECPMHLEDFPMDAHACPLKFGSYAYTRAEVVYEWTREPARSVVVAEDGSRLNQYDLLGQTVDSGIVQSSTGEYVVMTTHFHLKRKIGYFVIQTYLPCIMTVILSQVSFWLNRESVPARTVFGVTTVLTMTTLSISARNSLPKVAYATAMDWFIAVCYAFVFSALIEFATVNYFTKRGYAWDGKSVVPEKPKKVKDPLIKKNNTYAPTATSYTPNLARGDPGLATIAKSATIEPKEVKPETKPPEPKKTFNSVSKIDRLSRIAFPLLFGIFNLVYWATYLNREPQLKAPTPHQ
Cannabinoid receptor 1, sequence (P21554 whole entry): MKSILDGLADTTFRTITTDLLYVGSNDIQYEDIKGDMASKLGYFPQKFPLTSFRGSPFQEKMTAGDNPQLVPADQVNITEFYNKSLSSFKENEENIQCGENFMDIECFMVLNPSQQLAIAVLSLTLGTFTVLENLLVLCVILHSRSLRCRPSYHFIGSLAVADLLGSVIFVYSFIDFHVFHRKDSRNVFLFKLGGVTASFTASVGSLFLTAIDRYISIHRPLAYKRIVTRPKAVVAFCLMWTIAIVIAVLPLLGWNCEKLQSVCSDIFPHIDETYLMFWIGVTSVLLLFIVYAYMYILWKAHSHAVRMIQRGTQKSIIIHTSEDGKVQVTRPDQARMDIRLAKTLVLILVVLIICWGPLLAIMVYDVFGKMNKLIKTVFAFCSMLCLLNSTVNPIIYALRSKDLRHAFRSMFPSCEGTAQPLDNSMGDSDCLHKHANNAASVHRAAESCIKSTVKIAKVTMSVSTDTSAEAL
D(3) dopamine receptor, sequence (P35462 whole entry): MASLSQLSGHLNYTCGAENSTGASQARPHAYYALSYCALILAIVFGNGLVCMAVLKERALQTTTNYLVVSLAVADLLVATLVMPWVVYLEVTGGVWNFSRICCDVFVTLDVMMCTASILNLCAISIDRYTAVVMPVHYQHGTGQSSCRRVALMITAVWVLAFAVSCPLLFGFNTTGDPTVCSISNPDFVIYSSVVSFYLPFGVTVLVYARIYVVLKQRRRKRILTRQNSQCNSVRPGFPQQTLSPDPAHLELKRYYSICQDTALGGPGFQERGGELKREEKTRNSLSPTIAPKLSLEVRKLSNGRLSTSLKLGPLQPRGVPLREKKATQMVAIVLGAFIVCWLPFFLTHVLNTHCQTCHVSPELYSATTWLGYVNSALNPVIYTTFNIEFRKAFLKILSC
5-hydroxytryptamine receptor 2B, sequence (P41595 whole entry): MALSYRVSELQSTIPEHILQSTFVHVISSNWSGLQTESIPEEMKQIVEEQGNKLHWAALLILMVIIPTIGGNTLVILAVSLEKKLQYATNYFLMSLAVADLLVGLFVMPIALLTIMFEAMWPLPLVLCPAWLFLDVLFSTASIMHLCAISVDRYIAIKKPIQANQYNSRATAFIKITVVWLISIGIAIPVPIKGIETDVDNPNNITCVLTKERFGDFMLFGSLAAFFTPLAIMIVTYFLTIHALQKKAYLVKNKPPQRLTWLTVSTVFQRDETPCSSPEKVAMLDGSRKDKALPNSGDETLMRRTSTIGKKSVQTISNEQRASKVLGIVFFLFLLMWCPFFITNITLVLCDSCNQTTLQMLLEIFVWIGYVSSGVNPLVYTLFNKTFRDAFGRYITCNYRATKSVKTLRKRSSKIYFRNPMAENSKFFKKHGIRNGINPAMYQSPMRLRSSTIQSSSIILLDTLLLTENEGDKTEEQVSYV
Beta-2 adrenergic receptor, sequence (P07550 whole entry): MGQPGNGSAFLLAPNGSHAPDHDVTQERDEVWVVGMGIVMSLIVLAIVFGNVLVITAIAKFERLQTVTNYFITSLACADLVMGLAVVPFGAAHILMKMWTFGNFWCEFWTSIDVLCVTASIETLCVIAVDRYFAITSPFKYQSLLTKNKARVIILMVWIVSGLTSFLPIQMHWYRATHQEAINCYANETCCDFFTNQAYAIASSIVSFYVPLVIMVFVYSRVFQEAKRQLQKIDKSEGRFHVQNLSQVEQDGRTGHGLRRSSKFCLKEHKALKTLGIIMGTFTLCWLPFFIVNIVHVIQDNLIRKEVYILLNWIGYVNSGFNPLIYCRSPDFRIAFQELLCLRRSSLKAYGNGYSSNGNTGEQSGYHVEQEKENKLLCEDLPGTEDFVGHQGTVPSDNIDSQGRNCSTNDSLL
Beta-1 adrenergic receptor, sequence (P08588 whole entry): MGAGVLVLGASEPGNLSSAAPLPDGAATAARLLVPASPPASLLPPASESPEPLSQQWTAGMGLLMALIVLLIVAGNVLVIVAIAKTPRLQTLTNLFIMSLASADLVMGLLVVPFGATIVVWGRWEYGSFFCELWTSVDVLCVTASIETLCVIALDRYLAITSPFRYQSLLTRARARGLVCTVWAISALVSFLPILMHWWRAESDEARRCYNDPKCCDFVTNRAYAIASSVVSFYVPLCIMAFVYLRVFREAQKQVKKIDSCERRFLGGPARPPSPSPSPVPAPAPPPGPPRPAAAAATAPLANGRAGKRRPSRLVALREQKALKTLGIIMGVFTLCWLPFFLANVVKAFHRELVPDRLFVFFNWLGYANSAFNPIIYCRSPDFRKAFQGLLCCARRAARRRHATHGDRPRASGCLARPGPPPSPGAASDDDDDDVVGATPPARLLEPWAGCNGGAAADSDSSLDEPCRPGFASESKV
Adenosine receptor A2a, sequence (P29274 whole entry): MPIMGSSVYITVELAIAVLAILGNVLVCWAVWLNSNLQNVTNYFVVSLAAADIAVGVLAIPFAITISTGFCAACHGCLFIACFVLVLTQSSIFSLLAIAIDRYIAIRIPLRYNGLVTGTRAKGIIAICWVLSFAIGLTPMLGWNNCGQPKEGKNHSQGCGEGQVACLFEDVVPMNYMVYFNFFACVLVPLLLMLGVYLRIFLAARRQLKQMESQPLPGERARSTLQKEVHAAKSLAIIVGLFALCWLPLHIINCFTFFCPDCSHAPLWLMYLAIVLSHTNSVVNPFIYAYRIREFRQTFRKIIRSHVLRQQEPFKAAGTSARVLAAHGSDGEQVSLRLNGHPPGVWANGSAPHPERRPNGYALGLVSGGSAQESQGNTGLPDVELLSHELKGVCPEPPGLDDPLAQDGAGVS

| Structure (SMILES) | AC50 [1] [µM] | AC50 (Adenosine receptor A3) [µM] | AC50 [2] [µM] | AC50 [3] [µM] | also measured |
| --- | --- | --- | --- | --- | --- |
| Cc1cc2c(cc1S(N)(=O)=O)S(=O)(=O)CCC2 | > 30 | > 30 | > 30 | > 30 |  |
| C[C@H](N[C@@H](CCc1ccccc1)C(=O)O)C(=O)N1Cc2ccccc2C[C@H]1C(=O)O | > 30 | > 30 | > 30 | > 30 |  |
| O=C(O)[C@@H]1C[C@@H](O)CN1 | > 30 | > 30 | > 30 | > 30 |  |
| CC1(C)S[C@@H]2[C@H](/N=C/N3CCCCCC3)C(=O)N2[C@H]1C(=O)O [AMDINOCILLIN] | > 30 | > 30 | 14.5 | > 30 |  |
| CC(=O)[C@]1(N)Cc2c(O)c3c(c(O)c2[C@@H](O[C@H]2C[C@H](O)[C@H](O)CO2)C1)C(=O)c1ccccc1C3=O [AMRUBICIN] | 18.4 | > 30 | 3.62 | > 30 |  |
| CC(C)(C)NC(=O)N[C@H](C(=O)N1C[C@H]2[C@@H]([C@H]1C(=O)NC(CC1CCC1)C(=O)C(N)=O)C2(C)C)C(C)(C)C (stereo partly drawn) [BOCEPREVIR] | > 30 | > 30 | > 30 | > 30 |  |
| Cc1cn([C@H]2O[C@@H](CO)[C@H](O)[C@H]2F)c(=O)[nH]c1=O [CLEVUDINE] | > 30 | > 30 | > 30 | > 30 |  |
| N#Cc1ccc(Oc2ccc3c(c2)COB3O)cc1 [CRISABOROLE] | > 30 | > 30 | > 30 | > 30 |  |
| CC(=O)[C@H]1CC[C@H]2[C@@H]3C=CC4=CC(=O)CC[C@@]4(C)[C@@H]3CC[C@]12C [DYDROGESTERONE] | > 30 | > 30 | > 30 | > 30 |  |
| C[C@@H]1C[C@H]2[C@@H]3C[C@H](F)C4=CC(=O)C=C[C@]4(C)[C@@]3(F)[C@@H](O)C[C@]2(C)[C@@]1(OC(=O)c1ccco1)C(=O)SCF [FLUTICASONE FUROATE] | > 30 |  | 27.7 | > 30 | AC50 [4]: > 10 µM; AC50 [5]: > 30 µM; AC50 [6]: > 10 µM; AC50 [7]: > 10 µM; AC50 (Adenosine receptor A2a): > 10 µM; AC50 (Cannabinoid receptor 1): > 30 µM; AC50 [8]: > 10 µM; AC50 [9]: > 10 µM; AC50 [10]: > 10 µM; AC50 (D(3) dopamine receptor): > 30 µM; AC50 [11]: > 10 µM |
| Cc1ccc(S(=O)(=O)NC(=O)NC2CCCCC2)cc1 [GLYCYCLAMIDE] | > 30 | 12.7 | > 30 | > 30 |  |
| CN1CCCN(C(c2ccccc2)c2ccc(Cl)cc2)CC1 (stereo not drawn) [HOMOCHLORCYCLIZINE] | > 30 | > 30 | > 30 | > 30 |  |
| CC(=O)OCC(=O)[C@@]1(O)CC[C@H]2[C@@H]3CCC4=CC(=O)CC[C@]4(C)[C@H]3[C@@H](O)C[C@@]21C [HYDROCORTISONE ACETATE] | > 30 | > 30 | > 30 | > 30 |  |
| CC(COc1ccccc1)NC(C)C(O)c1ccc(O)cc1 (stereo not drawn) [ISOXSUPRINE] | > 30 | > 30 | > 30 | > 30 |  |
| Cc1oc(=O)oc1COC(=O)[C@@H]1N2C(=O)[C@@H](NC(=O)[C@H](N)c3ccccc3)[C@H]2SC1(C)C [LENAMPICILLIN] | > 30 | > 30 | > 30 | > 30 |  |
| C[C@@H]1C[C@H]2[C@@H]3C[C@H](F)C4=CC(=O)C=C[C@]4(C)[C@H]3[C@@H](O)C[C@]2(C)[C@@]1(O)C(=O)CO [PARAMETHASONE] | > 30 | > 30 | > 30 | > 30 |  |
| CCC[C@H](N[C@@H](C)C(=O)N1[C@H](C(=O)O)C[C@@H]2CCCC[C@@H]21)C(=O)OCC [PERINDOPRIL] | > 30 | > 30 | > 30 | > 30 |  |
| N[C@@H](Cc1ccccc1)C(=O)O [PHENYLALANINE] | > 30 | > 30 | 28 | > 30 |  |
| CCCn1cnc2c1c(=O)n(CCCCC(C)=O)c(=O)n2C [PROPENTOFYLLINE] | > 30 | > 30 | > 30 | > 30 |  |
| COc1cc(C)c2c(Oc3cccc(C(F)(F)F)c3)c(OC)cc(NC(C)CCCN)c2n1 (stereo not drawn) [TAFENOQUINE] | > 3 |  | 9.38 | > 30 |  |
| CCCSc1nc(N[C@@H]2C[C@H]2c2ccc(F)c(F)c2)c2nnn([C@@H]3C[C@H](OCCO)[C@@H](O)[C@H]3O)c2n1 [TICAGRELOR] | > 30 | 0.106 | > 30 | > 30 |  |
